Values belong to the compound of their own block, whether it stands above or below them. Peptide text beside a SMILES is read from it. * marks the point of attachment. Cbz = O=C(OCc1ccccc1)*; Acryloyl = C=CC(=O)*
Key:
gplTG2 = details: cited from earlier work; for K1 values: gplTG2, in words
[1] = system: epidermal cancer stem (ECS) cells; details: cited from earlier work
hTG2 [2] = target: T1, hTG2 (Homo sapiens, UniProt P21980); assay: Colorimetric transamidase activity assay
T1 sequence (P21980 1-687): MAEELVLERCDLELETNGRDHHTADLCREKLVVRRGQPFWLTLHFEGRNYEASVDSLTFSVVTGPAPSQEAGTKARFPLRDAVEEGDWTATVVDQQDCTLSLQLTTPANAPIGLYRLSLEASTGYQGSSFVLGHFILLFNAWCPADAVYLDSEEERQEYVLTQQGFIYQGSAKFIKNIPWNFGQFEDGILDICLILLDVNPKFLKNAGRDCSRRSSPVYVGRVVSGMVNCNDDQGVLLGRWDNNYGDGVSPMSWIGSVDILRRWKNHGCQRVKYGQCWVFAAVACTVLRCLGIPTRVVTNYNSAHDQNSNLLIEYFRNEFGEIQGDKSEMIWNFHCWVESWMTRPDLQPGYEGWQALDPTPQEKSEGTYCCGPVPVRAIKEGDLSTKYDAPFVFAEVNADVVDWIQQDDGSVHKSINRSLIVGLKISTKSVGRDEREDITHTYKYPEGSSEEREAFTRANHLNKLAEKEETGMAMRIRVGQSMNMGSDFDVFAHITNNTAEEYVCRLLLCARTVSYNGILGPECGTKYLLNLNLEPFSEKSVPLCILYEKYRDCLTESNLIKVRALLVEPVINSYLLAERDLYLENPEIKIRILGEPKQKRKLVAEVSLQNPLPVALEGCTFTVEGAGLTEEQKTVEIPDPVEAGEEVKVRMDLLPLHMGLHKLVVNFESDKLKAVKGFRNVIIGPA

[3] = system: epidermal cancer stem (ECS) cells (SCC-13); assay: Cell invasion assay; type: cell-based, human
[4] = system: mouse xenograft tumors initiated by injection of cancer stem cells; details: intraperitoneal injection, 20 mg/kg; cited from earlier work
hTG2 [5] = target: T1, hTG2; assay: In vitro GTP binding assay; details: inhibitor at 2KI, 30 min, 25 °C; 3 μM BODIPY GTP-γ-S
hTG2 [6] = target: T1, hTG2; assay: Inhibition irreversibility; type: biochemical; details: compared to uninhibited hTG2
hTG2 [7] = target: T1, hTG2; details: pH 6.5

SMILES: C=CC(=O)NCCCC[C@H](NC(=O)OCc1ccccc1)C(=O)O [Compound 1, (S)-6-Acrylamido-2-(((benzyloxy)carbonyl)amino)hexanoic Acid]
- K1 values (gplTG2): high nanomolar range

SMILES: C=CC(=O)NCCCC[C@H](NC(=O)OCc1ccccc1)C(=O)NCC(=O)O [Compound 2, (S)-2-(6-Acrylamido-2-(((benzyloxy)carbonyl)amino)-hexanamido)acetic Acid] (Cbz-Lys(Acryloyl)-Gly-OH)
- K1 values (gplTG2): high nanomolar range
- efficiency constants (kinact/KI) (gplTG2; gplTG2): 10^6 M^−1 min^−1

SMILES: C=CC(=O)NCCCC[C@H](NC(=O)OCc1ccccc1)C(=O)NCCOCCOCCNS(=O)(=O)c1cccc2c(N(C)C)cccc12 [Compound 3, (S)-Benzyl-(1-((5-(dimethylamino)naphthalene)-1-sulfonamido)-10,17-dioxo-3,6-dioxa-9,16-diazanonadec-18-en-11-yl)carbamate]
- ECS cell proliferation and survival ([1]; 20 μM): reduced ECS cell proliferation and survival
- effect in TG2 knockout ECS cells ([1]; TG2 knockout ECS cells): no effect
- increase in overall efficiency (kinact/KI), hTG2 versus gplTG2 (hTG2 [2]; hTG2 compared to gplTG2): 5 fold
- kinact (gplTG2; gplTG2): 0.483 min⁻¹
- EC50 ([3]; Homo sapiens, SCC-13, 18 h, read-out: EC50, inhibition of ECS cell invasion): > 20 µM
- growth of mouse xenograft tumors [4]: reduced the growth

SMILES: C=CC(=O)NCCCC[C@H](NC(=O)OCc1ccccc1)C(N)=O [Compound 4, (S)-Benzyl-(6-acrylamido-1-amino-1-oxohexan-2-yl)carbamate]
- GTP binding ability of hTG2 after incubation with inhibitor (hTG2 [5]): able to abolish GTP binding

SMILES: C=CC(=O)NCCCC[C@H](NC(=O)OCc1ccccc1)C(=O)N1CCN(S(=O)(=O)c2cccc3c(N(C)C)cccc23)CC1 [Compound 13, (S)-Benzyl (6-Acrylamido-1-(4-((5-(dimethylamino)naphthalen-1-yl)sulfonyl)piperazin-1-yl)-1-oxohexan-2-yl)carbamate]
- kinact/KI (hTG2 [2]): > 1670 M⁻¹ s⁻¹
- reduction in the inhibition binding constant compared to 3 (hTG2 [2]; hTG2): greater than 2 fold
- Hill slope ([3]; three-parameter sigmoidal fit of invasion data, maximum fixed at 100): 1.16 ± 0.13
- GTP binding ability of hTG2 after incubation with inhibitor (hTG2 [5]): abolishing GTP binding nearly completely
- recovered hTG2 activity after filtration (10 kDa cutoff) and dilution (hTG2 [6]): no recovered activity

SMILES: NC(=O)CI [iodoacetamide, reference compound]
- inhibition of hTG2 acyltransferase activity (hTG2 [2]; in words): irreversible inhibition
- GTP binding ability of hTG2 after incubation with inhibitor (hTG2 [5]): did not perturb its GTP-binding ability

Next, values leading:

- kinact less than that of 13 (hTG2 [2]; hTG2): more than 3 fold
SMILES: C=CC(=O)NCCCC[C@H](NC(=O)OCc1ccccc1)C(=O)N1CCN(S(=O)(=O)c2cccc3ccccc23)CC1 [Compound 30, (S)-Benzyl 6-Acrylamido-1-(4-(naphthalen-1-ylsulfonyl)piperazin-1-yl)-1-oxohexan-2-yl-carbamate]

- kinact/KI (hTG2 [2]): > 1670 M⁻¹ s⁻¹
- GTP binding ability of hTG2 after incubation with inhibitor (hTG2 [5]): abolishing GTP binding nearly completely
SMILES: C=CC(=O)NCCCC[C@H](NC(=O)OCc1ccccc1)C(=O)N1CCN(C(=O)c2cccc3ccccc23)CC1 [Compound 49, (S)-Benzyl (1-(4-(1-Naphthoyl)piperazin-1-yl)-6-acrylamido-1-ox-ohexan-2-yl)carbamate]

- kinact (hTG2 [7]): 0.0245 s⁻¹
SMILES: C=CC(=O)NCCCC[C@H](NC(=O)OCc1ccccc1)C(=O)N1CCOCC1 [Compound 59]
